From ChEMBL document CHEMBL1201862, “PubChem BioAssay data set” (2004)
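Where inhibition never reached the appropriate level, the endpoint shown equals the highest concentration tested. Otherwise, values were interpolated linearly from a five-concentration, 48-hour dose response in 96-well plates. GI50 = concentration required for 50% inhibition of growth.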 The source made the active and inactive calls. No stated cut-off is given here; in the data, active = GI50 up to about 1.1 µM and inactive = higher.

Experiments:
Assay in all cases: inhibition of tumour cell growth, NCI panel, 48 h
786-0 = system: 786-0
A498 = system: A498
CCRF-CEM = system: CCRF-CEM
HCT-15 = system: HCT-15
HOP-62 = system: HOP-62
HOP-92 = system: HOP-92
K562 = system: K562
KM12 = system: KM12
NCI-H226 = system: NCI-H226
NCI-H23 = system: NCI-H23
NCI-H460 = system: NCI-H460
PC-3 = system: PC-3
RXF 393 = system: RXF 393
SF-295 = system: SF-295
SK-MEL-28 = system: SK-MEL-28
SK-OV-3 = system: SK-OV-3
SR = system: SR
TK-10 = system: TK-10
U-251 = system: U-251
UACC-62 = system: UACC-62

Structure (SMILES)	GI50 (786-0)	GI50 (A498)	GI50 (CCRF-CEM)	GI50 (HCT-15) [µM]	GI50 (HOP-62)	GI50 (HOP-92)	GI50 (K562)	GI50 (KM12)	GI50 (NCI-H226)	GI50 (NCI-H23)	GI50 (NCI-H460)	GI50 (PC-3)	GI50 (RXF 393)	GI50 (SF-295)	GI50 (SK-MEL-28)	GI50 (SK-OV-3)	GI50 (SR)	GI50 (TK-10)	GI50 (U-251)	GI50 (UACC-62)
O=C1C(Cl)=C(Sc2nnc3c4ccccc4c4ccccc4c3n2)C(=O)c2ccccc21	16.4 µM (inactive)	20.3 µM (inactive)	3.78 µM (inactive)	19	16.7 µM (inactive)	16.9 µM (inactive)	21.1 µM (inactive)	14.8 µM (inactive)	19.3 µM (inactive)	5 µM (inactive)	17.8 µM (inactive)	19 µM (inactive)	17.1 µM (inactive)	10.8 µM (inactive)	21.8 µM (inactive)	21.6 µM (inactive)	7.43 µM (inactive)	22 µM (inactive)	13.3 µM (inactive)	15.8 µM (inactive)
CCN1C/C(=C\c2cc(OC)c(OC)c(OC)c2)C2=NN(c3ccccc3)C(c3cc(OC)c(OC)c(OC)c3)C2C1 (stereo not given)	0.398 µM (active)	17.1 µM (inactive)	1.81 µM (inactive)	5.58	0.855 µM (active)	2.92 µM (inactive)	1.65 µM (inactive)	4.34 µM (inactive)	4.68 µM (inactive)	3.56 µM (inactive)	1.06 µM (active)	1.08 µM (active)	0.75 µM (active)	2.54 µM (inactive)	0.871 µM (active)	1.74 µM (inactive)	2.03 µM (inactive)	1.65 µM (inactive)	0.652 µM (active)	20.1 µM (inactive)
O=C1NC(=O)C2C3C=CC(C12)C1C2C(=O)NC(=O)C2C31 (stereo not given)	682 µM (inactive)	158 µM (inactive)	54.8 µM (inactive)	237	74.3 µM (inactive)	128 µM (inactive)	234 µM (inactive)	220 µM (inactive)	177 µM (inactive)	245 µM (inactive)	53.7 µM (inactive)	217 µM (inactive)	220 µM (inactive)	174 µM (inactive)	222 µM (inactive)	98.6 µM (inactive)	135 µM (inactive)	> 250 µM (inactive)	203 µM (inactive)	107 µM (inactive)
CCCCCCCCCCCCCC/C(C(=O)O)=C(\C)C(=O)O	> 100 µM (inactive)	> 100 µM (inactive)	> 100 µM (inactive)	> 100	> 100 µM (inactive)	> 100 µM (inactive)	> 100 µM (inactive)	> 100 µM (inactive)	> 100 µM (inactive)	> 100 µM (inactive)	> 100 µM (inactive)	38.2 µM (inactive)	> 100 µM (inactive)	> 100 µM (inactive)	> 100 µM (inactive)	> 100 µM (inactive)	41.5 µM (inactive)	> 100 µM (inactive)	> 100 µM (inactive)	> 100 µM (inactive)
O=C(NC1CCN(Cc2ccccc2)CC1)c1cccc(I)c1	25.4 µM (inactive)	46.6 µM (inactive)	33.3 µM (inactive)	17.5	15.8 µM (inactive)	22 µM (inactive)	22.6 µM (inactive)	16.5 µM (inactive)	31.6 µM (inactive)	24 µM (inactive)	22 µM (inactive)	18.5 µM (inactive)	51.8 µM (inactive)	18.3 µM (inactive)	18 µM (inactive)	22.2 µM (inactive)	18.8 µM (inactive)	22.8 µM (inactive)	23 µM (inactive)	20.5 µM (inactive)
CC(C)C(=O)/C=C/c1c(Cl)cccc1Cl	7.74 µM (inactive)	21.2 µM (inactive)	11.6 µM (inactive)	4.55	5.83 µM (inactive)	12.9 µM (inactive)	9.35 µM (inactive)	2.85 µM (inactive)	2.33 µM (inactive)	2.33 µM (inactive)	2.18 µM (inactive)	11.5 µM (inactive)	5.43 µM (inactive)	11.6 µM (inactive)	5.81 µM (inactive)	3.28 µM (inactive)	1.91 µM (inactive)	12.1 µM (inactive)	3.82 µM (inactive)	6.35 µM (inactive)
